Experimental data published in ChEMBL document CHEMBL3638030, “IC50 data for the L-type calcium channel extracted from a set of literature articles”.

What was measured:
[1] = biological target: T1, Voltage-dependent L-type calcium channel subunit alpha-1C (Cavia porcellus, UniProt O35505); experiment: Inhibition of Cav1.2 calcium current measured using whole cell patch clamp in guinea pig tracheal smooth muscle cells; assay type: functional, tissue-based, Trachea; set-up: ca sol conc 5 - Barium mM, temp 35 C
T1 sequence (O35505 whole entry): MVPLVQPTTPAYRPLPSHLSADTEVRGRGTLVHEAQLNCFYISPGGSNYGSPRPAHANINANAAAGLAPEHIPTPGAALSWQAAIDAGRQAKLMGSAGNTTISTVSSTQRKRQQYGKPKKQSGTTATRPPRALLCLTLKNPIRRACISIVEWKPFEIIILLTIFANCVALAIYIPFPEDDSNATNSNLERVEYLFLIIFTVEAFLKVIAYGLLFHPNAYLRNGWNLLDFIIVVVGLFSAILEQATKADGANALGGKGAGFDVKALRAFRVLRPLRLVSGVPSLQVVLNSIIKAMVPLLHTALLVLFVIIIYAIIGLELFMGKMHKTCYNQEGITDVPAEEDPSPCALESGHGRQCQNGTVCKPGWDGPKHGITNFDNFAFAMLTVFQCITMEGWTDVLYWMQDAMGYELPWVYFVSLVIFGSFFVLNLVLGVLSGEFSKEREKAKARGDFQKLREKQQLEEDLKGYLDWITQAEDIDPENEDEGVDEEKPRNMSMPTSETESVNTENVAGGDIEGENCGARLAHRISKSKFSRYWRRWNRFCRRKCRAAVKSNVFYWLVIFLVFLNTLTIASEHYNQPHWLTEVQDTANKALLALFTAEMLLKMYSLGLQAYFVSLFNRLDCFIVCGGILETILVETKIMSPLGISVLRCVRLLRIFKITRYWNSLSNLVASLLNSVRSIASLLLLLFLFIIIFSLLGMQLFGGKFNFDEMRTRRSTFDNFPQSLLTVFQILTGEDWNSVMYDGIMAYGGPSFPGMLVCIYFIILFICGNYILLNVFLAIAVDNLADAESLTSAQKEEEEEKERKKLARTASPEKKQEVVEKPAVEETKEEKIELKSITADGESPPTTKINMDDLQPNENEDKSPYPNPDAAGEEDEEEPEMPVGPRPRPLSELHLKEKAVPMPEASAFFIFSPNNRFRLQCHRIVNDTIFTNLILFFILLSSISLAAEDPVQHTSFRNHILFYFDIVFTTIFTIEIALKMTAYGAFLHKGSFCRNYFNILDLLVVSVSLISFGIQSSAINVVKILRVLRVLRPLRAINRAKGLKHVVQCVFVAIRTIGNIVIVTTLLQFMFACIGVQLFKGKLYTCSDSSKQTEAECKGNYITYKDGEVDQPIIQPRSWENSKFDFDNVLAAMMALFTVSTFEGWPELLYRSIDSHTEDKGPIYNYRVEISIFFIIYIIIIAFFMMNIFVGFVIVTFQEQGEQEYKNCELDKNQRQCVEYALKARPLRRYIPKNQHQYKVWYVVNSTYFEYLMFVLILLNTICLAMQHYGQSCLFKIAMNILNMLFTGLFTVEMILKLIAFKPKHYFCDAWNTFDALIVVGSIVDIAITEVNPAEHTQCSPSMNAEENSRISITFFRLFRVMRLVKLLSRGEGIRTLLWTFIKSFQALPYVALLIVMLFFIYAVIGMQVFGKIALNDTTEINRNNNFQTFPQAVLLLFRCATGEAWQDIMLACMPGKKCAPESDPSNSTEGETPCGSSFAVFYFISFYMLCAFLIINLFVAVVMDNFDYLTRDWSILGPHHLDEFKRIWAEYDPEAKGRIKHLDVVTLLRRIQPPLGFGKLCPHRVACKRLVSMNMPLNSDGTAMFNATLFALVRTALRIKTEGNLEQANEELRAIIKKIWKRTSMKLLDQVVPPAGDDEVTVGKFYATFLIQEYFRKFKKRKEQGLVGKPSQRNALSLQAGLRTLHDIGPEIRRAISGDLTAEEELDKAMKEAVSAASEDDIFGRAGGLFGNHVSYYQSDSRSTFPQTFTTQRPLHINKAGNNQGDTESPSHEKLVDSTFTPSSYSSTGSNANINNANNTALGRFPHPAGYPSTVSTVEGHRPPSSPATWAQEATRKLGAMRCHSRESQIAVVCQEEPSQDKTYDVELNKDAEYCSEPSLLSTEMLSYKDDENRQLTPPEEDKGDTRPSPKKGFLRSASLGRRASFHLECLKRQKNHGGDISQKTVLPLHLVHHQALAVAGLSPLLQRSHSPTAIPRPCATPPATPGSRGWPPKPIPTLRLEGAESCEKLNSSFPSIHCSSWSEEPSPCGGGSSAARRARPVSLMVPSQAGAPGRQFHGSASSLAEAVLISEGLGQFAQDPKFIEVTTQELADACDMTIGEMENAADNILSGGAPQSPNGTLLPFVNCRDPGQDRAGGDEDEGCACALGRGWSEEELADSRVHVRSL

[2] = biological target: T2, Voltage-dependent L-type calcium channel subunit alpha-1C (Rattus norvegicus, UniProt P22002); experiment: Inhibition of Cav1.2 calcium current measured using whole cell patch clamp in rat Artery myocytes; assay type: functional, cell-based, Tail; set-up: ca sol conc 5 mM, temp 20-22 C
T2 sequence (P22002 whole entry): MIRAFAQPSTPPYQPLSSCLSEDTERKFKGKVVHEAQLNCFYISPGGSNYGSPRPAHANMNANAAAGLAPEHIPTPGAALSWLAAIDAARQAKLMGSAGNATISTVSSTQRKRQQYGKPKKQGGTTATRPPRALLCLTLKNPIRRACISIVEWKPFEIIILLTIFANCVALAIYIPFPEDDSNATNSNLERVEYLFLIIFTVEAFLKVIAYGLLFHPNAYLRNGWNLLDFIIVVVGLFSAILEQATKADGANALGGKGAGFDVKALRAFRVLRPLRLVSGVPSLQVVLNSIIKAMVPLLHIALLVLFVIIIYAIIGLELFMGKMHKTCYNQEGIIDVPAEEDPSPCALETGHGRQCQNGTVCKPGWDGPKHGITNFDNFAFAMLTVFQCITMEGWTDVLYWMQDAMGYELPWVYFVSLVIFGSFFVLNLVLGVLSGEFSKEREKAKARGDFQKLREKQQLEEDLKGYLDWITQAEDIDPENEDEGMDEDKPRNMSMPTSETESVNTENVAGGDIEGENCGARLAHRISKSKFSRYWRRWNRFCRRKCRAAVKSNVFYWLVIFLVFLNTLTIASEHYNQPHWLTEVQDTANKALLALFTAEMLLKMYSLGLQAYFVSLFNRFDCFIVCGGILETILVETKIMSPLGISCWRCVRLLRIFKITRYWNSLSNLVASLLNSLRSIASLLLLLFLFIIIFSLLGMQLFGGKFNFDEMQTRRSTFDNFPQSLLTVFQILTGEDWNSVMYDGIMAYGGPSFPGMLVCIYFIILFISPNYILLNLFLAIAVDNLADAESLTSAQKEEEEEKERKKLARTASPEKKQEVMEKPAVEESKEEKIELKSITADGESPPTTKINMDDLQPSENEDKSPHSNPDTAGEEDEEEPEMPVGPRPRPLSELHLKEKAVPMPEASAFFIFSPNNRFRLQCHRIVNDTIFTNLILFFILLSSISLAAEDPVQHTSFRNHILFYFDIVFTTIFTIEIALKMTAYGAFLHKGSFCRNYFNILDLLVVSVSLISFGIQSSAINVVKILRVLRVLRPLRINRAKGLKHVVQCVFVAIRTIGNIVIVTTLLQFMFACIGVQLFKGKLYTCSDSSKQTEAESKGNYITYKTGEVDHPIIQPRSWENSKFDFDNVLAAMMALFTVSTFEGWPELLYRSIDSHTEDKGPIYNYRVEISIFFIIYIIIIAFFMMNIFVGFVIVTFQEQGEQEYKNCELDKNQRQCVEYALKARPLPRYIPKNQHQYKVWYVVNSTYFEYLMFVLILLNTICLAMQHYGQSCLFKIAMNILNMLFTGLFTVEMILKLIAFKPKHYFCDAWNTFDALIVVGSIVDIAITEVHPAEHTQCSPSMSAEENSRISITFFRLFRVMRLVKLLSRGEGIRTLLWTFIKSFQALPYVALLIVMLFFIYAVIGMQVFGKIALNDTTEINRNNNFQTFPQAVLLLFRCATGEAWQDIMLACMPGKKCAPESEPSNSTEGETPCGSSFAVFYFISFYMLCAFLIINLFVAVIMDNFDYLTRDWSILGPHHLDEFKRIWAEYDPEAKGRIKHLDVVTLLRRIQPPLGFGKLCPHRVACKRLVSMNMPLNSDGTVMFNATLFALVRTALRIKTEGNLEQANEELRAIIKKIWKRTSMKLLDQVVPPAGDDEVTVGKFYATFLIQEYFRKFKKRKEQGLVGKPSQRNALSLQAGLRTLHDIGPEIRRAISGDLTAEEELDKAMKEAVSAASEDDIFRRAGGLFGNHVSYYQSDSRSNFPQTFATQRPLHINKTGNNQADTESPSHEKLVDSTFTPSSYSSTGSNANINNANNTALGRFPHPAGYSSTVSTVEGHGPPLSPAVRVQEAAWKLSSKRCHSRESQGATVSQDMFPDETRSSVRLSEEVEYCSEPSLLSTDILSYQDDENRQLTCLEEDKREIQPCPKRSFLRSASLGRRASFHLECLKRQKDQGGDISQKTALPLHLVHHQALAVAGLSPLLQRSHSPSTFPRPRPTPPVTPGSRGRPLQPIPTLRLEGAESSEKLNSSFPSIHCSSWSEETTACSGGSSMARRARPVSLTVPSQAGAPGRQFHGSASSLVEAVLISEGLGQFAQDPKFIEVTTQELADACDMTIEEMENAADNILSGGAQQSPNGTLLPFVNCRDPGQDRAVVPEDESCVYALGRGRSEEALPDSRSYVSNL

[3] = biological target: T1, Voltage-dependent L-type calcium channel subunit alpha-1C; experiment: Inhibition of Cav1.2 calcium current measured using whole cell patch clamp in guinea pig atrial myocytes; assay type: functional, cell-based, Heart, Cardiac Muscle Cell; set-up: ca sol conc 1.8 mM, temp 36 pm 1 C
[4] = biological target: T3, Voltage-dependent L-type calcium channel subunit alpha-1C (Mus musculus, UniProt Q01815); experiment: Inhibition of Cav1.2 calcium current measured using in mouse dorsal root ganglion neuron; assay type: functional, tissue-based; set-up: temp 20-23 C
[5] = biological target: T1, Voltage-dependent L-type calcium channel subunit alpha-1C; experiment: (§1) Inhibition of Cav1.2 calcium current measured using whole cell patch clamp in guinea pig ventricular myocytes; assay type: functional, cell-based, Heart, Ventricular myocyte; set-up: ca sol conc 1.8 mM, temp 25-27 C
[6] = biological target: T2, Voltage-dependent L-type calcium channel subunit alpha-1C; experiment: (§2) Inhibition of Cav1.2 calcium current measured using whole cell patch clamp in rat ventricular myocytes; assay type: functional, cell-based, Heart, Ventricular myocyte; set-up: ca sol conc 2 mM, temp 22-24 C
[7] = biological target: Voltage-dependent L-type calcium channel subunit alpha-1C (Oryctolagus cuniculus, UniProt P15381); experiment: Inhibition of Cav1.2 calcium current measured using whole cell patch clamp in rabbit ventricular myocytes; assay type: functional, cell-based, Heart, Ventricular myocyte; set-up: ca sol conc 1.8 mM, temp 34 C
[8] = biological target: T2, Voltage-dependent L-type calcium channel subunit alpha-1C; experiment: (§3) Inhibition of Cav1.2 calcium current measured using whole cell patch clamp in rat myocyte; assay type: functional, Heart, Cardiac Muscle Cell; set-up: ca sol conc 1.2 mM, temp 22 C
[9] = biological target: T2, Voltage-dependent L-type calcium channel subunit alpha-1C; experiment: Inhibition of Cav1.2 calcium current measured using whole cell patch clamp in rat Vascular smooth muscle cells; assay type: functional, cell-based; set-up: ca sol conc 0 (Barium used instead) mM, temp 22 C
[10] = biological target: T1, Voltage-dependent L-type calcium channel subunit alpha-1C; experiment: Inhibition of Cav1.2 calcium current measured using whole Cell patch clamp in guinea pig ventricular myocytes; assay type: functional, cell-based, Heart, Ventricular myocyte; set-up: ca sol conc 1.8 mM
[11] = biological target: T2, Voltage-dependent L-type calcium channel subunit alpha-1C; experiment: as §2; assay type: functional, cell-based, Heart, Ventricular myocyte; set-up: ca sol conc 1.8 mM, temp 22-26 C
[12] = biological target: T1, Voltage-dependent L-type calcium channel subunit alpha-1C; experiment: as §1; assay type: functional, cell-based, Heart, Ventricular myocyte; set-up: ca sol conc 1.8 mM
[13] = biological target: T1, Voltage-dependent L-type calcium channel subunit alpha-1C; experiment: as §1; assay type: functional, cell-based, Heart, Ventricular myocyte; set-up: ca sol conc 1.8 mM; remark: listed apart in the source
[14] = biological target: T1, Voltage-dependent L-type calcium channel subunit alpha-1C; experiment: as §1; assay type: functional, cell-based, Heart, Ventricular myocyte; set-up: ca sol conc 1.8 mM, temp 36 C
[15] = biological target: T2, Voltage-dependent L-type calcium channel subunit alpha-1C; experiment: as §2; assay type: functional, cell-based, Heart, Ventricular myocyte; set-up: ca sol conc 1 mM, temp 34 C
[16] = biological target: T3, Voltage-dependent L-type calcium channel subunit alpha-1C; experiment: (§4) Inhibition of Cav1.2 calcium current measured using whole cell patch clamp in mouse ventricular myocytes; assay type: functional, cell-based, Heart, Ventricular myocyte; set-up: ca sol conc 2 mM, temp room
[17] = biological target: T3, Voltage-dependent L-type calcium channel subunit alpha-1C; experiment: as §4; assay type: functional, cell-based, Heart, Ventricular myocyte; set-up: ca sol conc 2 mM, temp room; remark: listed apart in the source
[18] = biological target: T2, Voltage-dependent L-type calcium channel subunit alpha-1C; experiment: as §2; assay type: functional, cell-based, Heart, Ventricular myocyte; set-up: ca sol conc 1.8 mM, temp 25 C
[19] = biological target: T2, Voltage-dependent L-type calcium channel subunit alpha-1C; experiment: as §3; assay type: functional, Heart; set-up: ca sol conc 1.8 mM, temp 20-25 C; details: cardiac muscle cell
[20] = biological target: Voltage-dependent L-type calcium channel subunit alpha-1C (Homo sapiens, UniProt Q13936); experiment: Inhibition of Cav1.2 calcium current measured using whole cell patch clamp in human atrial myocytes; assay type: functional, cell-based, Heart, Cardiac Muscle Cell; set-up: ca sol conc 1.8 mM, temp 25 C

Structure (SMILES): CN1CCCC(n2nc(Cc3ccc(Cl)cc3)c3ccccc3c2=O)CC1 (stereo not drawn) [AZELASTINE]
- IC50 [1]: 8 µM

Structure (SMILES): O=c1cc(-c2ccccc2)oc2cc(O)c(O)c(O)c12 [BAICALEIN]
- IC50 [2]: 85.1 µM

Structure (SMILES): CC(C)COCC(CN(Cc1ccccc1)c1ccccc1)N1CCCC1 (stereo not drawn) [BEPRIDIL]
- IC50 [3]: 1.55 µM

Structure (SMILES): CC(C)(c1ccc(O)cc1)c1ccc(O)cc1 [BISPHENOL A]
- IC50 [4]: 35 µM

Structure (SMILES): O=C(/C=C/c1ccc(O)c(O)c1)OCCc1ccccc1 [CAFFEIC ACID PHENETHYL ESTER]
- IC50 [5]: 1.1 µM

Structure (SMILES): C=C(C)[C@@H]1CCC(C)=C[C@H]1c1c(O)cc(CCCCC)cc1O [CANNABIDIOL]
- IC50 [6]: 0.1 µM

Structure (SMILES): COc1ccccc1OCCNCC(O)COc1cccc2[nH]c3ccccc3c12 (stereo not drawn) [CARVEDILOL]
- IC50 [7]: 3.59 µM

Structure (SMILES): CCC1=C[C@@H]2CN3CCc4c([nH]c5ccccc45)[C@@](C(=O)OC)(C2)[C@@H]13 [CATHARANTHINE BASE]
- IC50 [8]: 224 µM
- IC50 [9]: 8.4 µM

Structure (SMILES): Cc1ccc(-c2cc(C(F)(F)F)nn2-c2ccc(S(N)(=O)=O)cc2)cc1 [CELECOXIB]
- IC50 [10]: 10.6 µM

Structure (SMILES): Oc1c(CN2CCCC2)cc(Nc2ncnc3ccccc23)cc1CN1CCCC1 [CHANGROLIN]
- IC50 [11]: 74.7 µM

Structure (SMILES): CN1CCC(=C2c3ccccc3C=Cc3ccccc32)CC1 [CYPROHEPTADINE]
- IC50 [12]: 42.2 µM
- IC50 [13]: 7.75 µM

Structure (SMILES): CCCCc1oc2ccc(NS(C)(=O)=O)cc2c1C(=O)c1ccc(OCCCN(CCCC)CCCC)cc1 [DRONEDARONE]
- IC50 [14]: 0.4 µM

Structure (SMILES): COC(=O)CCc1ccc(OCC(O)CNC(C)C)cc1 (stereo not drawn) [ESMOLOL]
- IC50 [15]: 450 µM

Structure (SMILES): COc1ccc(CCN(C)CCCOc2ccc(S(=O)(=O)c3c(C(C)C)cn4ccccc34)cc2)cc1OC [FANTOFARONE]
- IC50 [16]: 0.15 µM
- IC50 [17]: 0.0014 µM

Structure (SMILES): O=C(O)c1ccccc1Nc1ccccc1 [FENAMIC ACID]
- IC50 [18]: 470 µM

Structure (SMILES): CCC(C)c1ccccc1OC(=O)NC (stereo not drawn) [FENOBUCARB]
- IC50 [12]: 520 µM

Structure (SMILES): OC(Cn1cncn1)(Cn1cncn1)c1ccc(F)cc1F [FLUCONAZOLE]
- IC50 [19]: inactive at 10uM. Original reference for datapoint is pubmed_id: 22975497

Structure (SMILES): O=c1c(-c2ccc(O)cc2)coc2cc(O)cc(O)c12 [GENISTEIN]
- IC50 [2]: 57.5 µM

Structure (SMILES): CCC(C)n1ncn(-c2ccc(N3CCN(c4ccc(OCC5COC(Cn6cncn6)(c6ccc(Cl)cc6Cl)O5)cc4)CC3)cc2)c1=O (stereo not drawn) [ITRACONAZOLE]
- IC50 [19]: inactive at 10uM. Original reference for datapoint is pubmed_id: 22975497

Structure (SMILES): CNC1(c2ccccc2Cl)CCCCC1=O (stereo not drawn) [KETAMINE]
- IC50 [20]: 1.8 µM
